Among the data in patent US20230122249A1, “1H-PYRAZOLO[4,3-d]PYRIMIDINE COMPOUNDS AS TOLL-LIKE RECEPTOR 7 (TLR7) AGONISTS” (BRISTOL-MYERS SQUIBB COMPANY, priority 2020, published 2023) are EC50 values, retold here.

The target of one assay is T1, human TLR7 (Homo sapiens, UniProt Q9NYK1).
T1 construct: host or cells: HEK-Blue TLR7 cells (engineered human embryonic kidney cells)
T1 sequence (Q9NYK1 27-1049): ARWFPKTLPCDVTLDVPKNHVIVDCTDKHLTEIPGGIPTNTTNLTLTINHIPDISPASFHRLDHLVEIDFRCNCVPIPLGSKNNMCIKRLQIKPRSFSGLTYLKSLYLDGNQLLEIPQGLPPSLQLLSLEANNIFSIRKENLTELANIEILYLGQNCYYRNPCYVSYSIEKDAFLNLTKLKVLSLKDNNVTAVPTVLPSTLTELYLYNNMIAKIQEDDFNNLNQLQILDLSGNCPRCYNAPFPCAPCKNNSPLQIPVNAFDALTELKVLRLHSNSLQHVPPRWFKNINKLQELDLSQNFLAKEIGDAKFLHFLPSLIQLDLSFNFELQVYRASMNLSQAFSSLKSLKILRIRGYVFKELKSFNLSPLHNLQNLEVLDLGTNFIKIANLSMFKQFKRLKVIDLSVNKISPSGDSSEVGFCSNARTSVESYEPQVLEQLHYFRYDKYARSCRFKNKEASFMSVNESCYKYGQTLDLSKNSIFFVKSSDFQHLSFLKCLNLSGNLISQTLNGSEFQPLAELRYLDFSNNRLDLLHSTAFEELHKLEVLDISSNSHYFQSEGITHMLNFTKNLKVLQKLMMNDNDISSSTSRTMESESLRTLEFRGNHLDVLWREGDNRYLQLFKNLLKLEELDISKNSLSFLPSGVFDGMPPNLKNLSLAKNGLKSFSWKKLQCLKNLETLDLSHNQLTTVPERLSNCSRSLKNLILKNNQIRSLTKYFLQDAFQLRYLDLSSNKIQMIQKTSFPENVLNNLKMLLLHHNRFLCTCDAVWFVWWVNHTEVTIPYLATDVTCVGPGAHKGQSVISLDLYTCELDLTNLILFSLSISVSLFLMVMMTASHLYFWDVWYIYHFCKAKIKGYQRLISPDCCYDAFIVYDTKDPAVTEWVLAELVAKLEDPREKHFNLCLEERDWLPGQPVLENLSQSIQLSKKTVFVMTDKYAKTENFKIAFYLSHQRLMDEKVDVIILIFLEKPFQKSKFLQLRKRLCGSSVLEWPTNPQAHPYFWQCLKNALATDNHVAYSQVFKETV
As to the kind of experiment: Human TLR7 agonist activity (hTLR7 reporter) assay in HEK-Blue TLR7 cells, SEAP readout. The class given is cell-based. The conditions noted are these: 18 h treatment, average where assay repeated. How it is done: This procedure describes a method for assaying human TLR7 (hTLR7) agonist activity of the compounds disclosed in this specification.
HEK-Blue™ TLR7 cells were added to each well of a 384-well tissue-culture plate (15,000 cells per well) and incubated 16-18 h at 37° C., 5% CO2. Compounds (100 nl) were dispensed into wells containing the HEK-Blue™ TLR cells and the treated cells were incubated at 37° C., 5% CO2. After 18 h treatment ten microliters of freshly-prepared Quanti-Blue™ reagent (Invivogen) was added to each well, incubated for 30 min (37° C., 5% CO2) and SEAP levels measured using an Envision plate reader (OD=620 nm). The half maximal effective concentration values (EC50; compound concentration which induced a response halfway between the assay baseline and maximum) were calculated.

Assay [1] concerns CD69 in human whole blood. The assay can be described thus: Induction of CD69 in human whole blood (hWB). The class given is cell-based. The following applies: heparinized human whole blood, 17 h, CD69 surface staining; 100% set to 1 uM resiquimod; average where assay repeated. The protocol:
The induction of Type I interferon (IFN) MX-1 genes and the B-cell activation marker CD69 are downstream events that occur upon activation of the TLR7 pathway. The following is a human whole blood assay that measures their induction in response to a TLR7 agonist.
Heparinized human whole blood was harvested from human subjects and treated with test TLR7 agonist compounds at 1 mM. The blood was diluted with RPMI 1640 media and Echo was used to predot 10 nL per well giving a final concentration of 1 uM (10 nL in 10 uL of blood). After mixing on a shaker for 30 sec, the plates were covered and placed in a 37° C. chamber for o/n=17 hrs. Fixing/lysis buffer was prepared (5×->1×in H2O, warm at 37° C.; Cat# BD 558049) and kept the perm buffer (on ice) for later use.
For surface markers staining (CD69): prepared surface Abs: 0.045 ul hCD14-FITC (ThermoFisher Cat # MHCD1401)+0.6 ul hCD19-ef450 (ThermoFisher Cat #48-0198-42)+1.5 ul hCD69-PE (cat# BD555531)+0.855 ul FACS buffer. Added 3 ul/well, spin1000 rpm for 1 min and mixed on shaker for 30 sec, put on ice for 30 mins. Stop stimulation after 30 minutes with 70 uL of prewarmed 1×fix/lysis buffer and use Feliex mate to resuspend (15 times, change tips for each plate) and incubate at 37° C. for 10 minutes.
Centrifuge at 2000 rpm for 5 minutes aspirate with HCS plate washer, mix on shaker for 30 sec and then wash with 70 uL in dPBS and pelleted 2 xs (2000 rpm for 5 min) and 50 ul wash in FACS buffer pelleted 1 xs(2000 rpm for 5 min). Mix on shaker for 30 sec. For Intracellular markers staining (MX-1): Add 50 ul of BD Perm buffer III and mix on shaker for 30 sec. Incubate on ice for 30 minutes (in the dark). Wash with 50 uL of FACS buffer 2×(spin @2300 rpm×5 min after perm) followed by mixing on shaker for 30 sec. Resuspended in 20 ul of FACS buffer containing MX1 antibody ( )(4812)-Alexa 647: Novus Biologicals #NBP2-43704AF647) 20 ul FACS bf+0.8 ul hlgG+0.04 ul MX-1. Spin 1000 rpm for 1 min, mix on shaker for 30 se and the samples were incubated at RT in the dark for 45 minutes followed by washing 2×FACS buffer (spin @2300 rpm×5 min after perm). Resuspend 20 ul (35 uL total per well) of FACS buffer and cover with foil and place in 4° C. to read the following day. Plates were read on iQuePlus. The results were loaded into toolset and […] curves are generated in curve master. The y-axis 100% is set to 1 uM of resiquimod.

Take `COc1cc(CNC2CCC2)ccc1Cn1ncc2nc(N)nc(NCC3CC4(C3)CC4F)c21` (mixture of isomers) [Compound 115]: the EC50 at human TLR7 stood at 84.1 nM.

`COc1cc(CNC2CCC2)ccc1Cn1ncc2nc(N)nc(NCC3CC4(C3)CC4(F)F)c21` (mixture of isomers) [Compound 136] showed an EC50 at human TLR7 of 68.1 nM.

Take `CCC[C@@H](CCO)Nc1nc(N)nc2cnn(Cc3ccc(CN4CC5(C4)CN(C(C)=O)C5)cc3OC)c12` [Compound 101]: the EC50 in assay [1] worked out at 4.5 nM; at human TLR7, 32.4 nM.

`CCCCNc1nc(N)nc2cnn(Cc3ccc(CN4CC5(C4)CC(F)(F)C5)cc3OC)c12` [Compound 102] returned an EC50 on human TLR7 of 95.4 nM.

In the case of `CCCCNc1nc(N)nc2cnn(Cc3ccc(CN4CC5(COC5)C4)cc3OC)c12` [Compound 103], the EC50 in assay [1] is 13.5 nM; on human TLR7, 62.9 nM.

In turn, `CCCCNc1nc(N)nc2cnn(Cc3ccc(CN4CC5(C4)CN(C(=O)CC(C)C)C5)cc3OC)c12` [Compound 104] had a concentration for a half-maximal effect (EC50) on human TLR7 of 138 nM.

As for `CCCCNc1nc(N)nc2cnn(Cc3ccc(CN4CC5(C4)CN(C(=O)C(C)(C)C)C5)cc3OC)c12` [Compound 105], the EC50 at human TLR7 came to 60 nM.

Turning to `CCC[C@@H](CCO)Nc1nc(N)nc2cnn(Cc3ccc(CN4CC5(C4)CN(C(=O)C4CCC4)C5)cc3OC)c12` [Compound 106], the EC50 stood at 24.9 nM in assay [1] and 11.6 nM at human TLR7.

Regarding `CCC[C@@H](CCO)Nc1nc(N)nc2cnn(Cc3ccc(CN4CC5(C4)CN(C(=O)C4(C)CC4)C5)cc3OC)c12` [Compound 107], the 50% effective concentration (EC50) in assay [1] amounted to 9.9 nM; on human TLR7, 6.6 nM.

As to `COc1cc(CN2CC3(C2)CN(C(C)=O)C3)ccc1Cn1ncc2nc(N)nc(NCC3CC34CC4)c21` (centres unmarked) [Compound 109], at human TLR7, a half-maximal response (EC50) required 1230 nM.

Take `CCCCNc1nc(N)nc2cnn(Cc3ccc(CN4CC5(C4)CN(C(=O)C4CCC4)C5)cc3OC)c12` [Compound 110]: the midpoint of the response at human TLR7, the EC50, lay at 31.9 nM.

On to `CCC[C@@H](CCO)Nc1nc(N)nc2cnn(Cc3ccc(CNC4CCOCC45CCC5)cc3OC)c12` (some centres unmarked) [Compound 114], for which the response at human TLR7 was half-maximal at 3.4 nM (EC50).

Regarding `COc1cc(CNC2CCOCC2)ccc1Cn1ncc2nc(N)nc(NCC3CC4(C3)CC4F)c21` (centres unmarked) [Compound 116], it took 163 nM to reach a half-maximal effect on human TLR7 (EC50).

Consider `COc1cc(CN2C[C@H]3CN(C)C[C@H]3C2)ccc1Cn1ncc2nc(N)nc(NCC3CC4(C3)CC4F)c21` (some centres unmarked) [Compound 118], for which, on human TLR7, the concentration giving a half-maximal response (EC50) was 137 nM.

`COc1cc(CN2CC3(CN(C)C3)C2)ccc1Cn1ncc2nc(N)nc(NCC3CC4(C3)CC4F)c21` (centres unmarked) [Compound 120] gave a concentration giving a half-maximal response (EC50) on human TLR7 of 262 nM.

With `COc1cc(CN2CC3(C2)CN(C(C)=O)C3)ccc1Cn1ncc2nc(N)nc(NCC3CC4(C3)CC4(F)F)c21` (centres unmarked) [Compound 122], the response on human TLR7 was half-maximal at 241 nM (EC50).

With `COc1cc(CN2CC3(C2)CN(C(C)C2(C)CC2)C3)ccc1Cn1ncc2nc(N)nc(NCC3CC4(C3)CC4(F)F)c21` (centres unmarked) [Compound 123], the EC50 at human TLR7 was 320 nM.

`COc1cc(CN2C[C@@H]3C[C@H]2CN3)ccc1Cn1ncc2nc(N)nc(NCC3CC4(C3)CC4F)c21` (some centres unmarked) [Compound 124]: at human TLR7, the midpoint of the response, the EC50, lay at 193 nM.

In the case of `COc1cc(CN2C[C@H]3C[C@@H]2CN3C)ccc1Cn1ncc2nc(N)nc(NCC3CC4(C3)CC4F)c21` (some centres unmarked) [Compound 125], the EC50 at human TLR7 came out at 59.2 nM.

For the compound `COc1cc(CN2C[C@H]3CNC[C@H]3C2)ccc1Cn1ncc2nc(N)nc(NCC3CC4(C3)CC4F)c21` (some centres unmarked) [Compound 126], the midpoint of the response at human TLR7, the EC50, lay at 244 nM.

Consider `COc1cc(CN2CC3(C2)CN(C(=O)C2(C)CC2)C3)ccc1Cn1ncc2nc(N)nc(NCC3CC4(C3)CC4F)c21` (centres unmarked) [Compound 128], for which the EC50 on human TLR7 is 349 nM.

On human TLR7, `COc1cc(CNC2CCC2)ccc1Cn1ncc2nc(N)nc(NCC3CC4(CC4)C3)c21` [Compound 129] displayed an EC50 of 24.4 nM.

`COc1cc(CNC2CCOCC2)ccc1Cn1ncc2nc(N)nc(NCC3CC4(CC4)C3)c21` [Compound 130]: at human TLR7, the response was half-maximal at 39.7 nM (EC50).

On human TLR7, `COc1cc(CN2C[C@H]3C[C@@H]2CN3C)ccc1Cn1ncc2nc(N)nc(NCC3CC4(CC4)C3)c21` [Compound 134] registered an EC50 of 16.6 nM.

The compound `COc1cc(CN2CC3(CCOCC3)C2)ccc1Cn1ncc2nc(N)nc(NCC3CC4(CC4)C3)c21` [Compound 135] had a 50% effective concentration (EC50) at human TLR7 of 69.8 nM.

With `COc1cc(CNC2CCOCC2)ccc1Cn1ncc2nc(N)nc(NCC3CC4(C3)CC4(F)F)c21` (centres unmarked) [Compound 137], the EC50 on human TLR7 is 88.1 nM.

As for `COc1cc(CN2CC3(CN(C)C3)C2)ccc1Cn1ncc2nc(N)nc(NCC3CC4(C3)CC4(F)F)c21` (centres unmarked) [Compound 138], at human TLR7, the midpoint of the response, the EC50, lay at 244 nM.

On to `COc1cc(CN2C[C@H]3CNC[C@H]3C2)ccc1Cn1ncc2nc(N)nc(NCC3CC4(C3)CC4(F)F)c21` (some centres unmarked) [Compound 140], for which the EC50 at human TLR7 stood at 435 nM.

In turn, `COc1cc(CN2C[C@H]3C[C@@H]2CN3C)ccc1Cn1ncc2nc(N)nc(NCC3CC4(C3)CC4(F)F)c21` (some centres unmarked) [Compound 142] came in with an EC50 on human TLR7 of 49.7 nM.

Consider `COc1cc(CN2CC3(CC(O)C3)C2)ccc1Cn1ncc2nc(N)nc(NCC3CC4(C3)CC4(F)F)c21` (centres unmarked) [Compound 143], for which the EC50 at human TLR7 came to 103 nM.

Regarding `COc1cc(CN2CC3(CC(OC)C3)C2)ccc1Cn1ncc2nc(N)nc(NCC3CC4(C3)CC4(F)F)c21` (centres unmarked) [Compound 144], a half-maximal response on human TLR7 (EC50) required 69.5 nM.

On human TLR7, `COc1cc(C(=O)N2CC3(CC(O)C3)C2)ccc1Cn1ncc2nc(N)nc(NCC3CC4(C3)CC4(F)F)c21` (centres unmarked) [Compound 160] yielded a half-maximal effective concentration (EC50) of 2580 nM.

In turn, `COc1cc(C(=O)N2CCOCC2)ccc1Cn1ncc2nc(N)nc(NCC3CC4(C3)CC4(F)F)c21` (centres unmarked) [Compound 161] registered a half-maximal effective concentration (EC50) at human TLR7 of 354 nM.

On to `COc1cc(C(=O)N(C)C)ccc1Cn1ncc2nc(N)nc(NCC3CC4(C3)CC4(F)F)c21` (centres unmarked) [Compound 162], for which the EC50 at human TLR7 came to 497 nM.

`COc1cc(C(=O)NC2CCN(C)CC2)ccc1Cn1ncc2nc(N)nc(NCC3CC4(C3)CC4(F)F)c21` (centres unmarked) [Compound 164] displayed an EC50 on human TLR7 of 638 nM.

In turn, `COc1cc(C(=O)N2CCN(C)CC2)ccc1Cn1ncc2nc(N)nc(NCC3CC4(C3)CC4(F)F)c21` (centres unmarked) [Compound 165] gave a concentration giving a half-maximal response (EC50) on human TLR7 of 147 nM.

As to `COc1cc(CN2CC3(C2)CN(C(C)=O)C3)ccc1Cn1ncc2nc(N)nc(NCc3cc(C)on3)c21` [Compound 212], the EC50 in assay [1] worked out at 61.9 nM.
